This data set can be described thus: Influence of humidity: water content of crystals after standing at controlled relative humidity. The class given is physicochemical. The settings on record: 7 days, 25° C.; for Change of water content with rising relative humidity: 22 to 93% RH. The method, then: Test Example 1 Influence of Humidity After being allowed to stand the compounds of the present invention (T-614β, T-614γ and T-614 hydrate) and the compound disclosed as Example 5 in Japanese Patent Laid-Open No. 5-97840 (T-614α) under the relative humidity 22, 51, 75 and 93% RH for 7 days at 25° C., the water content of each crystal was measured.

The structures appear in SMILES notation.

As to `CS(=O)(=O)Nc1cc2occ(NC=O)c(=O)c2cc1Oc1ccccc1` [T-614 hydrate, N-[3-(formylamino)-4-oxo-6-phenoxy-4H-chromen-7-yl]methanesulfonamide], the “Change of water content with rising relative humidity” value is recorded as “almost kept unchanged” and the “Stability under a high humidity condition” value (shortened to “Stability”) is listed as “stable under a high humidity condition”. Moreover, under “relative humidity 22% RH”, the “Water content (%)” value was 4.09%. Moreover, where the note is “relative humidity 51% RH”, the “Water content (%)” value was determined as 4.15%. The “Water content (%)” value (relative humidity 75% RH) was 4.08%. Further, under “relative humidity 93% RH”, the “Water content (%)” value is 4.03%.

On to `CS(=O)(=O)Nc1cc2occ(NC=O)c(=O)c2cc1Oc1ccccc1` [T-614α, N-[3-(formylamino)-4-oxo-6-phenoxy-4H -chromen-7-yl]methanesulfonamide, reference compound], for which the “Change of water content with rising relative humidity” value was “increased with the rising of relative humidity”. The “Water content (%)” value (relative humidity 22% RH) is given as 0.30%. Also, the “Water content (%)” value (relative humidity 51% RH) stood at 1.29%. Moreover, the “Water content (%)” value (relative humidity 75% RH) turned out to be 2.88%. The “Water content (%)” value (relative humidity 93% RH) worked out at 3.62%.

Consider `CS(=O)(=O)Nc1cc2occ(NC=O)c(=O)c2cc1Oc1ccccc1` [T-614β, N-[3-(formylamino)-4-oxo-6-phenoxy-4H-chromen-7-yl]methanesulfonamide], for which the “Change of water content with rising relative humidity” value was “almost kept unchanged” and the “Stability” value was “stable under a high humidity condition”. Further, the “Water content (%)” value (relative humidity 22% RH) is reported as 0.54%. In addition, the “Water content (%)” value (relative humidity 51% RH) was determined as 0.25%. For the setting “relative humidity 75% RH”, the “Water content (%)” value is 0.21%. Also, the “Water content (%)” value (relative humidity 93% RH) is listed as 0.18%.

Take `CS(=O)(=O)Nc1cc2occ(NC=O)c(=O)c2cc1Oc1ccccc1` [T-614γ, N-[3-(formylamino)-4-oxo-6-phenoxy-4H-chromen-7-yl]methanesulfonamide]: the “Change of water content with rising relative humidity” value was “almost kept unchanged” and the “Stability” value is on record as “stable under a high humidity condition”. Besides, under “relative humidity 22% RH”, the “Water content (%)” value was 0.28%. In addition, the “Water content (%)” value (relative humidity 51% RH) turned out to be 0.33%. In addition, the “Water content (%)” value (relative humidity 75% RH) was 0.52%. Moreover, the “Water content (%)” value (relative humidity 93% RH) is reported as 0.65%.

These data come from US20070287844A1, “Novel Crystal of N-[3-(Formylamino)-4-Oxo-6-Phenoxy-4h-Chromene-7-Yl] Methanesulfonamide” (Toyama Chemical Co., Ltd., priority 2003, published 2007).
